Experimental data reported in US7998972B2, “1H-imidazo[4,5-c]quinoline derivatives in the treatment of protein kinase dependent diseases” (Novartis AG, priority 2002, dated 2011).

Target: PKB/Akt (Homo sapiens, UniProt P31749)
Test: Inhibition of PKB/Akt in vitro
Assay type: biochemical
Conditions: PDK1-activated GST-PKB, LRRPRTRSFS peptide, 20 μM ATP; read-out: IC50 range class, inhibition of PKB/Akt in vitro
Description: The activity as inhibitor of PKB can be determined as follows:
To fully activate PKB, the enzyme is exposed to catalytic amounts of PDK1. GST-PKB (100 ng, Specific Activity: 0.2 nmoles/mg/mins) is incubated for 30 min at room temperature (rt) with purified recombinant GST-PDK1 (1 ng, SA: 2 nmoles/min/mg). The activation is performed as follows: 0.1 μg of GST-PDK1 (0.05 μl) and 10 μg of GST-PKB (0.45 μl) are mixed in a total volume of 0.75 μl containing 15 μM ATP, 3 mM MgCl2, 20 mM Hepes (pH 7.6) for 30 mins at rt. The reaction is subsequently stopped by adding 0.25 μl containing 30% glycerol (w/w) and 0.06 μl of 500 mM EDTA. 100-500 ng (0.01-0.05 μl) activated GST-PKB is incubated in a final volume of 30 μl with 10 μM of the LRRPRTRSFS peptide, 10 mM Mg-acetate, 50 mM MOPS (PH 7.5), 1 mM DTT and 300 μg/ml BSA, 20 μM ATP (0.1 μCi gamma-^33P-ATP). The reaction is carried out for 30 min at rt in the presence of either 1% DMSO or the text compound of the formula I at the required concentration in 1% DMSO. The reaction is terminated by the addition of 20 μl 125 mM EDTA. 30 ill of each sample is spotted onto P81 Whatman and the paper squares processed as described in Ferrari, S. and Thomas, G. (1991) Meth. Enzymol. 200, 159-169. IC50 values are calculated by linear regression analysis of the percentage inhibition of each compound in duplicate.

Chain of PKB/Akt (P31749 whole entry): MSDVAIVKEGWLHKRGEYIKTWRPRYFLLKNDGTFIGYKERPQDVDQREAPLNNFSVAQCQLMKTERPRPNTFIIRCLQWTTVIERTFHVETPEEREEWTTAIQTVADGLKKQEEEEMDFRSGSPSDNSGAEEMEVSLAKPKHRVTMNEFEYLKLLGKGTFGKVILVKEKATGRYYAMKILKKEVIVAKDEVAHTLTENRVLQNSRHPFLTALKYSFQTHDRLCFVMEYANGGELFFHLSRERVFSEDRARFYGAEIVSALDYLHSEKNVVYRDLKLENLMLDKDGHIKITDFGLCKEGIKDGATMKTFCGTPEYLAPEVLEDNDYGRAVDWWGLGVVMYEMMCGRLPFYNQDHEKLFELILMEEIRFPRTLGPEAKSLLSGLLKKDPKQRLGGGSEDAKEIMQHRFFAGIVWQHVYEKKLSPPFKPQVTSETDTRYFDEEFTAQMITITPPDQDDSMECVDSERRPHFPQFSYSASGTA

| SMILES | IC50 [nM] |
| --- | --- |
| COc1ccc(-c2ccc3ncc4ncn(-c5ccccc5Cl)c4c3c2)cc1 [Example 137, 1-(2-Chloro-phenyl)-8-(4-methoxy-phenyl)-1H-imidazo[4,5-c]quinoline] | 1000 to 2000 |
| Fc1ccccc1-n1cnc2cnc3ccc(-c4ccccc4)cc3c21 [Example 54, 1-(2-Fluoro-phenyl)-8-phenyl-1H-imidazo[4,5-c]quinoline] | 1000 to 2000 |
